Assays:
windgrass = assay: Test D postemergence; format: in vivo, Apera spica-venti; details: Apera spica-venti, post-emergence
Procedure, shortened: (§1)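 In a controlled growth environment, treated and control plants were held 7 to 21 days, then compared visually. Damage was scored 0–100, where 100 means complete control. Sprays contained surfactant in a non-phytotoxic solvent; post-applied plants were at the 1- to 4-leaf stage.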

kochia = assay: Test D preemergence; format: in vivo, Kochia scoparia; details: Bassia scoparia, pre-emergence
Procedure, shortened: as §1

wild radish [1] = assay: Test D preemergence; format: in vivo, Raphanus raphanistrum; details: Raphanus raphanistrum, pre-emergence
Procedure, shortened: as §1

Italian ryegrass = assay: Test D preemergence; format: in vivo, Lolium multiflorum; details: Lolium multiflorum, pre-emergence
Procedure, shortened: as §1

deadnettle = assay: Test D postemergence; format: in vivo, Lamium amplexicaule; details: Lamium amplexicaule, post-emergence
Procedure, shortened: as §1

chickweed = assay: Test D preemergence; format: in vivo, Stellaria media; details: Stellaria media, pre-emergence
Procedure, shortened: as §1

wild oat = assay: Test D preemergence; format: in vivo, Avena fatua; details: Avena fatua, pre-emergence
Procedure, shortened: as §1

speedwell = assay: Test D postemergence; format: in vivo, Veronica persica; details: Veronica persica, post-emergence
Procedure, shortened: as §1

wild radish [2] = assay: Test D postemergence; format: in vivo, Raphanus raphanistrum; details: Raphanus raphanistrum, post-emergence
Procedure, shortened: as §1

galium = assay: Test D preemergence; format: in vivo, Galium aparine; details: Galium, pre-emergence
Procedure, shortened: as §1

pigweed = assay: Test D preemergence; format: in vivo, Amaranthus retroflexus; details: Amaranthus retroflexus, pre-emergence
Procedure, shortened: as §1

FC(F)(F)COc1cnn(-c2ccccc2Oc2ncc(Cl)cn2)c1 [Compound 138, 5-chloro-2-[2-[4-(2,2,2-trifluoroethoxy)-1H-pyrazol-1-yl]phenoxy]pyrimidine] showed a pest or weed control at 16 g/ha (windgrass; 16 g ai/ha, scale 0-100, read-out: Plant response rating, Windgrass) of 0%, a pest or weed control at 31 g/ha (windgrass; 31 g ai/ha, scale 0 to 100 (0 no effect, 100 complete control), read-out: Plant response rating, Windgrass) of 0% and a pest or weed control at 62 g/ha (windgrass; 62 g ai/ha, scale 0 to 100 (0 no effect, 100 complete control), read-out: Plant response rating, Windgrass) of 15%. For the same compound, the pest or weed control at 125 g/ha (windgrass; 125 g ai/ha, scale 0 to 100 (0 no effect, 100 complete control), read-out: Plant response rating, Windgrass) was 20%, the pest or weed control at 16 g/ha (kochia; 16 g ai/ha, scale 0 (no effect) to 100 (complete control), read-out: Plant response rating, Kochia) was 20% and the pest or weed control at 31 g/ha (kochia; 31 g ai/ha, scale 0-100, read-out: Plant response rating, Kochia) was 20%. The pest or weed control at 62 g/ha (kochia; 62 g ai/ha, scale 0-100, read-out: Plant response rating, Kochia) was 35%, the pest or weed control at 125 g/ha (kochia; 125 g ai/ha, scale 0-100, read-out: Plant response rating, Kochia) was 55% and the pest or weed control at 16 g/ha (wild radish [1]; 16 g ai/ha, scale 0 (no effect) to 100 (complete control), read-out: Plant response rating, Radish, Wild) was 90%. It also gave a pest or weed control at 31 g/ha (wild radish [1]; 31 g ai/ha, scale 0 (no effect) to 100 (complete control), read-out: Plant response rating, Radish, Wild) of 85%, a pest or weed control at 62 g/ha (wild radish [1]; 62 g ai/ha, scale 0-100, read-out: Plant response rating, Radish, Wild) of 70% and a pest or weed control at 125 g/ha (wild radish [1]; 125 g ai/ha, scale 0-100, read-out: Plant response rating, Radish, Wild) of 85%. For the same compound, the pest or weed control at 16 g/ha (Italian ryegrass; 16 g ai/ha, scale 0 (no effect) to 100 (complete control), read-out: Plant response rating, Ryegrass, Italian) was 0%, the pest or weed control at 31 g/ha (Italian ryegrass; 31 g ai/ha, scale 0 (no effect) to 100 (complete control), read-out: Plant response rating, Ryegrass, Italian) was 0% and the pest or weed control at 62 g/ha (Italian ryegrass; 62 g ai/ha, scale 0-100, read-out: Plant response rating, Ryegrass, Italian) was 0%. It also gave a pest or weed control at 125 g/ha (Italian ryegrass; 125 g ai/ha, scale 0-100, read-out: Plant response rating, Ryegrass, Italian) of 10%, a pest or weed control at 16 g/ha (deadnettle; 16 g ai/ha, scale 0-100, read-out: Plant response rating, Deadnettle) of 5% and a pest or weed control at 31 g/ha (deadnettle; 31 g ai/ha, scale 0 to 100 (0 no effect, 100 complete control), read-out: Plant response rating, Deadnettle) of 5%. The pest or weed control at 62 g/ha (deadnettle; 62 g ai/ha, scale 0 to 100 (0 no effect, 100 complete control), read-out: Plant response rating, Deadnettle) was 15%, the pest or weed control at 125 g/ha (deadnettle; 125 g ai/ha, scale 0 to 100 (0 no effect, 100 complete control), read-out: Plant response rating, Deadnettle) was 25% and the pest or weed control at 16 g/ha (chickweed; 16 g ai/ha, scale 0 (no effect) to 100 (complete control), read-out: Plant response rating, Chickweed) was 100%. The pest or weed control at 31 g/ha (chickweed; 31 g ai/ha, scale 0-100, read-out: Plant response rating, Chickweed) was 100%, the pest or weed control at 62 g/ha (chickweed; 62 g ai/ha, scale 0-100, read-out: Plant response rating, Chickweed) was 100% and the pest or weed control at 125 g/ha (chickweed; 125 g ai/ha, scale 0-100, read-out: Plant response rating, Chickweed) was 100%. It also gave a pest or weed control at 16 g/ha (wild oat; 16 g ai/ha, scale 0 (no effect) to 100 (complete control), read-out: Plant response rating, Oat, Wild) of 0%, a pest or weed control at 31 g/ha (wild oat; 31 g ai/ha, scale 0-100, read-out: Plant response rating, Oat, Wild) of 0% and a pest or weed control at 62 g/ha (wild oat; 62 g ai/ha, scale 0-100, read-out: Plant response rating, Oat, Wild) of 0%. It also gave a pest or weed control at 125 g/ha (wild oat; 125 g ai/ha, scale 0-100, read-out: Plant response rating, Oat, Wild) of 0%, a pest or weed control at 16 g/ha (speedwell; 16 g ai/ha, scale 0-100, read-out: Plant response rating, Speedwell) of 70% and a pest or weed control at 31 g/ha (speedwell; 31 g ai/ha, scale 0 to 100 (0 no effect, 100 complete control), read-out: Plant response rating, Speedwell) of 70%. It also gave a pest or weed control at 62 g/ha (speedwell; 62 g ai/ha, scale 0 to 100 (0 no effect, 100 complete control), read-out: Plant response rating, Speedwell) of 75%, a pest or weed control at 125 g/ha (speedwell; 125 g ai/ha, scale 0 to 100 (0 no effect, 100 complete control), read-out: Plant response rating, Speedwell) of 75% and a pest or weed control at 16 g/ha (wild radish [2]; 16 g ai/ha, scale 0-100, read-out: Plant response rating, Radish, Wild) of 60%. The pest or weed control at 31 g/ha (wild radish [2]; 31 g ai/ha, scale 0 to 100 (0 no effect, 100 complete control), read-out: Plant response rating, Radish, Wild) was 65%, the pest or weed control at 62 g/ha (wild radish [2]; 62 g ai/ha, scale 0 to 100 (0 no effect, 100 complete control), read-out: Plant response rating, Radish, Wild) was 80% and the pest or weed control at 125 g/ha (wild radish [2]; 125 g ai/ha, scale 0 to 100 (0 no effect, 100 complete control), read-out: Plant response rating, Radish, Wild) was 90%. For the same compound, the pest or weed control at 16 g/ha (galium; 16 g ai/ha, scale 0 (no effect) to 100 (complete control), read-out: Plant response rating, Galium) was 25%, the pest or weed control at 31 g/ha (galium; 31 g ai/ha, scale 0-100, read-out: Plant response rating, Galium) was 40% and the pest or weed control at 62 g/ha (galium; 62 g ai/ha, scale 0-100, read-out: Plant response rating, Galium) was 90%. The pest or weed control at 125 g/ha (galium; 125 g ai/ha, scale 0-100, read-out: Plant response rating, Galium) was 100%, the pest or weed control at 16 g/ha (pigweed; 16 g ai/ha, scale 0 (no effect) to 100 (complete control), read-out: Plant response rating, Pigweed) was 0% and the pest or weed control at 31 g/ha (pigweed; 31 g ai/ha, scale 0 (no effect) to 100 (complete control), read-out: Plant response rating, Pigweed) was 25%. It also gave a pest or weed control at 62 g/ha (pigweed; 62 g ai/ha, scale 0-100, read-out: Plant response rating, Pigweed) of 100% and a pest or weed control at 125 g/ha (pigweed; 125 g ai/ha, scale 0-100, read-out: Plant response rating, Pigweed) of 100%.

— patent US9695155B2, “Herbicidal substituted pyrimidinyloxy benzene compounds” (E. I. DU PONT DE NEMOURS AND COMPANY, priority 2013, dated 2017)
